{
  "source": "patent US6855735B2",
  "about": "“Ketamine treatment of restless legs syndrome” (Temple University of the Commonwealth System of Higher …, priority 2002, dated 2005)",
  "key": {"patients with RLS [1]": {"tested_on": "patients with RLS", "assay": "Case reports: oral ketamine in patients with RLS (Examples 1-6)", "format": "in vivo, human", "details": "for earlier treatment / earlier treatment of back pain, neurogenic claudication and RLS: before ketamine", "experimental": "A patient presented with a history of back pain, neurogenic claudication, and RLS. Treatment with the dopaminergic agonist, pergolide and oxycodone had been ineffective. In addition to RLS, the patient's past history included prior spinal surgery, insulin-dependent diabetes mellitus, sleep apnea, and congestive heart failure. Their family history was positive for RLS.\nThe patient was prescribed amitriptyline 25 mg at bedtime and gabapentin 300 mg three times daily in addition to their other medications.\nAfter consenting to the evaluation of single dose efficacy of oral ketamine, the patient received 30 mg of ketamine mixed in 50 cc (or ml) of water. After 20 minutes of observation, the patient noted that their VAS score had improved to 2/10.\nA patient with a history of chronic lower back pain, spinal stenosis, scoliosis, and RLS complained of worsening neurogenic claudication. Their VAS was 7/10.\nThe patient was then treated with 50 mg of oral ketamine.\nA patient presented with a history of cardiac transplant, on immune suppressive medication, could not be treated with steroids for with spinal stenosis, neurogenic claudication, and RLS.\nA patient presented with a history of multiple back surgeries and depression. […] Opioids were restarted to control the return of the patient's back pain.\nA patient presented with a history of a renal transplant with documented lumbar radiculopathy and severe RLS on immunosuppressive treatment. The RLS symptoms were so severe that the patient could not keep their legs still at their initial office visit. […] While the RLS remitted during 4 months of treatment with 25 mg of ketamine daily, opioids were added to the treatment for pain control.\nA dialysis patient presented with a history of failed back surgery, spinal stenosis and severe leg pain which responded to treatment with methadone but maintained severe RLS where the patient was not able to sleep more than 2 hours/night."}, "[2]": {"assay": "Serum levels of ketamine in patients treated with low doses of oral ketamine", "format": "in vivo, human", "experimental": "Also, it is suitable that the dose of ketamine administered is less than the dose generally administered for alleviation of pain. For example, since only about 20% of an oral dose of ketamine is absorbed, the successful treatment of a patient with 2 mg of ketamine for RLS over a 24 hour period would equal less than 0.001 mg/kg/hour. At these doses, the threshold serum level for pyschotomimetic side effects (on the order of 50 ng/ml) is not reached. Moreover, the threshold serum level for pain relief (on the order of 200 ng/ml) is also not approached. […] Thus, the serum levels at which oral ketamine acts to relieve RLS are substanitially lower than those reported for pain relief. Treatment with low dosages of oral ketamine provides relief for subjects suffering from or affected by RLS by alleviating symptoms associated with RLS, and avoids the side effects generally encountered in the use of ketamine for the treatment of conscious patients and/or other therapies for RLS described above.\n(§1) The patients, shown in Examples 7-23, were treated with doses of liquid oral ketamine or oral ketamine in tablet form. There were no patients who had serum levels of ketamine measured that reached the levels reported for therapeutic analgesic effect of ketamine, i.e., 200 ng/ml."}, "patients with RLS [3]": {"tested_on": "patients with RLS", "assay": "Patients treated with doses of oral ketamine (Examples 7-23, Table)", "format": "in vivo, human", "experimental": "In the Table shown below, patients were treated with doses of oral ketamine.\nas §1"}, "[4]": {"details": "cited from earlier work"}, "NMDA receptor": {"tested_on": "NMDA receptor", "details": "primary metabolite of oral ketamine; cited from earlier work"}, "[5]": {"details": "Example 1, amitriptyline 25 mg at bedtime and gabapentin 300 mg three times daily together, a month later"}, "[6]": {"details": "Example 3, oral 20 mg at bedtime"}, "[7]": {"details": "one patient per row (Examples 7-23), oral ketamine 10-100 mg/24 hours (col I), treatment 1-8 months (col G)"}},
  "note": "Values joined by “and” are separate entries in the source; they are usually repeats but may differ in a detail not shown here. Equal entries are not always repeated.",
  "data": [
    {"molecule": "CN(C)CCC=C1c2ccccc2CCc2ccccc21", "note": "[amitriptyline]", "values": [
      {"measurement": "symptoms", "setting": "patients with RLS [1]; [5]", "result": "no improvement in their symptoms"},
      {"measurement": "verbal analog pain score (VAS)", "setting": "patients with RLS [1]; [5]", "result": "6/10"}
    ]},
    {"molecule": "NCC1(CC(=O)O)CCCCC1", "note": "[gabapentin]", "values": [
      {"measurement": "symptoms", "setting": "patients with RLS [1]; [5]", "result": "no improvement in their symptoms"},
      {"measurement": "verbal analog pain score (VAS)", "setting": "patients with RLS [1]; [5]", "result": "6/10"},
      {"measurement": "earlier treatment", "setting": "patients with RLS [1]; Example 2", "result": "without success"}
    ]},
    {"molecule": "CNC1(c2ccccc2Cl)CCCCC1=O", "note": "(centres unmarked) [ketamine, (2-o-chlorophenyl)-2-(methylamino)-cyclohexanone]", "values": [
      {"measurement": "serum levels of ketamine", "setting": "[2]; patients of Examples 7-23 who had serum levels measured, liquid or tablet oral ketamine", "result": "< 200", "unit": "ng/mL"},
      {"measurement": "serum levels of ketamine", "setting": "[2]; patients treated with low doses of oral ketamine for RLS, commercially available tests", "result": "not to have detectable serum levels"},
      {"measurement": "verbal analog pain score (VAS)", "setting": "patients with RLS [1]; Example 1, person, single oral dose 30 mg ketamine in 50 cc water, after 20 minutes, VAS before 6/10", "result": "2/10"},
      {"measurement": "sleep and RLS", "setting": "patients with RLS [1]; Example 1, oral 30 mg twice a day for 6 months", "result": "improvement in sleep and RLS"},
      {"measurement": "side effects after single dose", "setting": "patients with RLS [1]; Example 1, single oral dose 30 mg", "result": "no dizziness, or other distressing symptoms"},
      {"measurement": "VAS", "setting": "patients with RLS [1]; Example 2, person, 50 mg oral ketamine, within 15 minutes, VAS before 7/10", "result": "2/10"},
      {"measurement": "walking", "setting": "patients with RLS [1]; Example 2, 50 mg oral ketamine, within 15 minutes", "result": "subjective improvement in walking"},
      {"measurement": "sleep and RLS symptoms", "setting": "patients with RLS [1]; Example 2, oral 40 mg twice a day, a month following the trial", "result": "significant improvement in their sleep and RLS symptoms"},
      {"measurement": "pain relief", "setting": "patients with RLS [1]; [6]", "result": "no pain relief"},
      {"measurement": "side effects", "setting": "patients with RLS [1]; [6]", "result": "psychotomimetic side effects"},
      {"measurement": "RLS", "setting": "patients with RLS [1]; Example 3, oral 20 mg at bedtime, persisted after ketamine was stopped", "result": "resolution of RLS"},
      {"measurement": "RLS symptoms and sleep", "setting": "patients with RLS [1]; Example 4, oral daily 25 mg", "result": "lessened RLS symptoms and improved sleep"},
      {"measurement": "pain and RLS", "setting": "patients with RLS [1]; Example 5, renal transplant patient, oral daily 10 mg", "result": "pain relief and resolution of RLS"},
      {"measurement": "RLS", "setting": "patients with RLS [1]; Example 5, 25 mg daily, 4 months of treatment", "result": "RLS remitted"},
      {"measurement": "reduction of RLS symptoms", "setting": "patients with RLS [1]; Example 6, dialysis patient, 2 mg oral at bedtime", "result": "more than 50%"},
      {"measurement": "tolerability (psychotomimetic effects)", "setting": "patients with RLS [1]; Example 6, dialysis patient, 20 mg daily oral", "result": "could not tolerate"},
      {"measurement": "psychotomimetic side effects", "setting": "patients with RLS [1]; Example 6, 2 mg oral at bedtime", "result": "no psychotomimetic side effects"},
      {"measurement": "sleep duration", "setting": "patients with RLS [1]; Example 6, 2 mg oral at bedtime, before not more than 2 hours/night", "result": "more than 4.5 hrs./night"},
      {"measurement": "F = VAS or visual analog scale for pain/walking ability (improvement)", "setting": "patients with RLS [3]; [7]", "result": "80% (4×) and 60% (5×) and 90% and 70% (4×) and 50% (2×) and 40%"},
      {"measurement": "J = complications", "setting": "patients with RLS [3]; [7]", "result": "No (14×) and Yes (2×) and Rash"},
      {"measurement": "RLS symptoms", "setting": "patients with RLS [3]; patients of Examples 7-23, low ketamine dosage", "result": "improved related limb sensations, motor restlessness and insomnia"},
      {"measurement": "threshold serum level for pain relief", "setting": "[4]; in vivo", "result": "~200", "unit": "ng/mL"},
      {"measurement": "fraction of an oral dose absorbed", "setting": "[4]; oral", "result": "about 20%"}
    ]},
    {"molecule": "CCC(=O)C(CC(C)N(C)C)(c1ccccc1)c1ccccc1", "note": "(centres unmarked) [methadone]", "values": [
      {"measurement": "severe leg pain", "setting": "patients with RLS [1]; Example 6, dialysis patient, severe RLS maintained", "result": "responded"}
    ]},
    {"molecule": "NC1(c2ccccc2Cl)CCCCC1=O", "note": "(centres unmarked) [norketamine]", "values": [
      {"measurement": "potency relative to ketamine", "setting": "NMDA receptor", "result": "one-third to one-fifth"}
    ]},
    {"molecule": "COc1ccc2c3c1O[C@H]1C(=O)CC[C@@]4(O)[C@@H](C2)N(C)CC[C@]314", "note": "[oxycodone]", "values": [
      {"measurement": "earlier treatment of back pain, neurogenic claudication and RLS", "setting": "patients with RLS [1]; Example 1", "result": "ineffective"}
    ]},
    {"molecule": "CCCN1C[C@H](CSC)C[C@@H]2c3cccc4[nH]cc(c34)C[C@H]21", "note": "[pergolide]", "values": [
      {"measurement": "earlier treatment of back pain, neurogenic claudication and RLS", "setting": "patients with RLS [1]; Example 1", "result": "ineffective"}
    ]},
    {"molecule": "C=C[C@H]1C[N@@]2CC[C@H]1C[C@H]2[C@H](O)c1ccnc2ccc(OC)cc12", "note": "[quinine]", "values": [
      {"measurement": "earlier treatment", "setting": "patients with RLS [1]; Example 2", "result": "without success"}
    ]},
    {"molecule": "CS(=O)(=O)c1ccc(C2=C(c3ccccc3)C(=O)OC2)cc1", "note": "[rofecoxib]", "values": [
      {"measurement": "earlier treatment", "setting": "patients with RLS [1]; Example 2", "result": "without success"}
    ]},
    {"molecule": "COc1cccc(C2(O)CCCCC2CN(C)C)c1", "note": "(centres unmarked) [tramadol]", "values": [
      {"measurement": "earlier treatment", "setting": "patients with RLS [1]; Example 2", "result": "without success"}
    ]}
  ]
}
